Results: article PMC6958387, “Biological Evaluation of Arylsemicarbazone Derivatives as Potential Anticancer Agents” (Pharmaceuticals, 2019)

Tests used:
HL-60 cells [1] = test: Mitochondrial transmembrane potential (rhodamine 123), flow cytometry; format: cell-based, human; conditions: 72 h
Description: In this sense, in order to evaluate if compounds 3c and 4a induce apoptosis by alterating the mitochondria transmembrane potential, this assay was performed by flow cytometry using the fluorochrome rhodamine 123, because this is able to accumulate in cells with unchanged mitochondrial transmembrane potential.
(§1) HL-60 cells (3 × 10^5) were plated in 24-well plates and treated with the compounds 3c (13 and 26 μM) and 4a (11 and 22 μM) for 72 h at 37 °C with 5% CO2. In all trials, doxorubicin was used as a positive control. After the incubation period, an aliquot of 500 μL of treated and untreated cells suspension was transferred to an Eppendorf tube and centrifuged to remove the supernatant and continue the protocol of the test. In the cell viability and annexin V assays, kits were used, ViaCount kit and guava nexin kit (Guava Technologies), respectively. The protocols performed in these tests followed the manufacturer’s instructions. For to analyze mitochondrial depolarization, rhodamine 123 fluorescent dye was used. In the assay for cell cycle analysis and DNA fragmentation propidium iodide was used. The experiments were performed on Guava EasyCyte HT (Merck-Millipore) flow cytometer, acquiring 5000 events. The data were analyzed in Guava-Soft™ software version 2.7. Three independent experiments were performed in triplicate.

[2] = tested on: K562, HL-60, MOLT-4, HEp-2, NCI-H292, HT-29 and MCF-7 tumor cell lines; test: Cytotoxic screening against the panel of tumor cell lines (MTT); format: cell-based, human; conditions: Homo sapiens; range over the seven tumor cell lines, 72 h; read-out: IC50 values across all tested cell lines
Description: The cytotoxicity assessment was performed against three human cancer cell lines in suspension (K562, HL-60 and MOLT-4) and four adhered (HEp-2, NCI-H292, HT-29 and MCF-7).
The cells were obtained from the Cell Bank of Rio de Janeiro and maintained in the Laboratory of Cell Culture of the Department of Antibiotics of the Federal University of Pernambuco. The lines K562 (myeloblastic leukaemia), HL-60 (promyelocytic leukemia) and MOLT-4 (lymphoblastic leukemia) were cultured in RPMI 1640 medium and the lines HEp-2 (larynx carcinoma), NCI-H292 (lung carcinoma), HT-29 (colon adenocarcinoma) and MCF-7 (breast adenocarcinoma) were cultured in DMEM medium, supplemented with 10% fetal bovine serum, 2 mM glutamine, 100 U/mL penicillin and 100 μg/mL streptomycin (Gibco™ Life Technologies), at 37 °C and 5% CO2.
The evaluation of the cytotoxicity of the compounds was performed by the method of 3-(4,5-dimethyl-2-thiazolyl)-2,5-diphenyl-2H-tetrazolium bromide (MTT) (Sigma Aldrich Co., St. Louis, MO, USA). To perform the assay the cells were seeded in 96-well plates at the following concentrations: HL-60 and K562 (0.3 × 10^6 cells/mL); MOLT-4 and PBMC (10^6 cells/mL); NCI-H292, HT-29, HEp-2 e MCF-7 (10^5 cells/mL). Briefly, the compounds previously dissolved in DMSO (dimethylsulfoxide, Vetec, São Paulo, Brazil), were diluted in medium and added to each well at the desired concentrations. For the calculation of the concentration that inhibits 50% of cell growth (IC50) the compounds were serially diluted to obtain the final concentrations between 0.19–25 μg/mL. Doxorubicin was used as the standard in the concentration range between (0.078–10 μg/mL). After 72 h of contact of the cells with the compounds, it was added to each well 25 μL of MTT solution (5 mg/mL). […] To perform the reading, 100 μL of DMSO was added in each well for the dissolution of the formazan crystals. The amount of formazan was measured by reading the plate at 560 nm absorbance. The IC50 was calculated from the nonlinear regression in the Prisma 7.0 software (GraphPad, San Diego, CA, USA). […]

HL-60 cells [3] = test: Cell viability, Guava ViaCount kit, flow cytometry; format: cell-based, human; conditions: 22 μM, 72 h
Description: Initially, the percentage of viable cells in apoptosis or necrosis was determined by the ViaCount assay at the Guava EasyCyte HT flow cytometer (Merck-Millipore, Hayward, CA, USA). The ViaCount kit (Merck-Millipore, Hayward, CA, USA) determines cell viability based on membrane permeability. The concentrations used in the cytometric tests were values corresponding to the IC50 and 2x IC50 of 72 h and the chosen cell line was HL-60 (promyelocytic leukemia).
as §1, with “The experiments were performed on Guava EasyCyte HT (Merck-Millipore) flow cytometer, acquiring 5000 events.” left out, “Three independent experiments were performed in triplicate.” left out

For `NC(=O)N/N=C/c1c(O)ccc2ccccc12` [Compound 3c, 2-Hydroxynaphthaldehyde Semicarbazone], the depolarized cells (HL-60 cells [1]; 13 μM) was 30.9%, the depolarized cells (HL-60 cells [1]; 26 μM) was 34.2% and the IC50 [2] was 13.1 to 56.3 µM.
`Cc1ccc(C=NNC(N)=O)cc1` [Compound 3g, 4-Methylbenzaldehyde Semicarbazone] showed a melting point of 215 to 217 °C.
For `CCCCN(N=Cc1ccc([N+](=O)[O-])o1)C(N)=O` [Compound 4a, 5-Nitro-2-(N^2-n-butyl)furfuraldehyde Semicarbazone], the depolarized cells (HL-60 cells [1]; 22 μM) was 59.3%, the IC50 [2] was 11.4 to 37.9 µM and the “cells in early apoptosis (ViaCount)” value (HL-60 cells [3]) was 65.3%.
